Results from patent US9376418B2, “Substituted pyridine spleen tyrosine kinase (SYK) inhibitors” (Merck Sharp & Dohme Corp., priority 2012, dated 2016).
pIC50: −log10 of the molar value.

The molecules below were run against T1, recombinant human GST-SYK (Homo sapiens, UniProt P43405) (assay: Homogeneous Time-Resolved Fluorescence (HTRF) assay for the recombinant human Syk enzyme). Conditions: HTRF assay, recombinant human GST-SYK; IC50 given as class symbols; read-out: rhSYK Activity.
T1 construct: purchased Carna Biosciences 08-176
Format: biochemical
Description: Homogeneous Time-Resolved Fluorescence (HTRF) Assay for the Recombinant Human Syk Enzyme
A recombinant GST-hSYK fusion protein was used to measure potency of compounds to inhibit human Syk activity. The recombinant human GST-SYK (Carna Biosciences #08-176) ([…]) was incubated with various concentrations of the inhibitor diluted in DMSO (0.1% final concentration) for 10 minutes at room temperature in 15 mM Tris-HCl (pH 7.5), 0.01% tween 20, 2 mM DTT in 384 well plate format. To initiate the reaction the biotinylated substrate peptide (250 nM final concentration) that contains the phosphorylation site for Syk was added with magnesium (5 mM final concentration) and ATP (25 μM final concentration). Final volume of the reaction was 10 μL. Phosphorylation of the peptide was allowed to proceed for 45′ at room temperature. To quench the reaction and detect the phosphorylated product, 2 nM of a Europium-anti-phosphotyrosine antibody (Perkin Elmer #AD0161) and 70 nM SA-APC (Perkin-Elmer #CR130-100) were added together in 15 mM Tris pH 7.5, 40 mM EDTA, 0.01% tween 20. Final volume of the quenching solution was 10 μL. The resulting HTRF signal was measured after 30 minutes on an EnVision (Perkin-Elmer) reader using a time-resolved fluorescence protocol.

pIC50 | Compound
6.00 to 7.00 | CCOC(=O)Cc1ccc(-c2cccc(Nc3nccc(C(F)(F)F)n3)c2)nc1 [Example 2.5, ethyl [6-(3-{[4-(trifluoromethyl)pyrimidin-2-yl]amino}phenyl)pyridin-3-yl]acetate]
6.00 to 7.00 | CS(=O)(=O)c1ccc(-c2cccc(Nc3nccc(C(F)(F)F)n3)c2)nc1 [Example 2.6, N-{3-[5-(methylsulfonyl)pyridin-2-yl]phenyl}-4-(trifluoromethyl)pyrimidin-2-amine]
6.00 to 7.00 | NC(=O)c1ccnc(-c2cccc(Nc3nccc(C(F)(F)F)n3)c2)c1 [Example 2.7, 2-(3-{[4-(trifluoromethyl)pyrimidin-2-yl]amino}phenyl)pyridine-4-carboxamide]
6.00 to 7.00 | NC(=O)c1ccc(-c2cccc(Nc3nccc(C(F)(F)F)n3)c2)nc1 [Example 2.8, 6-(3-{[4-(trifluoromethyl)pyrimidin-2-yl]amino}phenyl)pyridine-3-carboxamide]
6.00 to 7.00 | Cc1ccc(S(=O)(=O)Nc2ccc(-c3cccc(Nc4nccc(C(F)(F)F)n4)c3)nc2)cc1 [Example 2.9, 4-methyl-N-[6-(3-{[4-(trifluoromethyl)pyrimidin-2-yl]amino}phenyl)pyridin-3-yl]benzenesulfonamide]
> 7.00 | Cc1cc(Nc2nccc(C(F)(F)F)n2)cc(-c2ccc(N)c(O)n2)c1 [Example 2.10, 3-amino-6-(3-methyl-5-{[4-(trifluoromethyl)pyrimidin-2-yl]amino}phenyl)pyridin-2-ol]
6.00 to 7.00 | O=C(O)c1ccnc(-c2cccc(Nc3nccc(C(F)(F)F)n3)c2)c1 [Example 2.11, 2-(3-{[4-(trifluoromethyl)pyrimidin-2-yl]amino}phenyl)pyridine-4-carboxylic acid]
6.00 to 7.00 | O=C(O)c1cccc(-c2cccc(Nc3nccc(C(F)(F)F)n3)c2)n1 [Example 2.12, 6-(3-{[4-(trifluoromethyl)pyrimidin-2-yl]amino}phenyl)pyridine-2-carboxylic acid]
> 7.00 | Cc1cc(Nc2nccc(C(F)(F)F)n2)cc(-c2cccc(C(=O)O)n2)c1 [Example 2.13, 6-(3-methyl-5-{[4-(trifluoromethyl)pyrimidin-2-yl]amino}phenyl)pyridine-2-carboxylic acid]
5.00 to 6.00 | CCOC(=O)CCc1cccc(-c2cccc(Nc3nccc(C(F)(F)F)n3)c2)n1 [Example 2.14, ethyl 3-[6-(3-{[4-(trifluoromethyl)pyrimidin-2-yl]amino}phenyl)pyridin-2-yl]propanoate]
6.00 to 7.00 | O=C(O)CCc1ccc(-c2cccc(Nc3nccc(C(F)(F)F)n3)c2)nc1 [Example 2.16, 3-[6-(3-{[4-(trifluoromethyl)pyrimidin-2-yl]amino}phenyl)pyridin-3-yl]propanoic acid]
6.00 to 7.00 | O=C(O)CCc1cccc(-c2cccc(Nc3nccc(C(F)(F)F)n3)c2)n1 [Example 2.17, 3-[6-(3-{[4-(trifluoromethyl)pyrimidin-2-yl]amino}phenyl)pyridin-2-yl]propanoic acid]
6.00 to 7.00 | O=C(O)CCc1ccnc(-c2cccc(Nc3nccc(C(F)(F)F)n3)c2)c1 [Example 2.18, 3-[2-(3-{[4-(trifluoromethyl)pyrimidin-2-yl]amino}phenyl)pyridin-4-yl]propanoic acid]
> 7.00 | COc1ccnc(Nc2cc(C)cc(-c3cc(CCC(=O)O)ccn3)c2)n1 [Example 2.21, 3-(2-{3-[(4-methoxypyrimidin-2-yl)amino]-5-methylphenyl}pyridin-4-yl)propanoic acid]
> 7.00 | Cc1cc(Nc2nccc(C(F)(F)F)n2)cc(-c2cc(CCC(=O)O)ccn2)c1 [Example 2.22, 3-[2-(3-methyl-5-{[4-(trifluoromethyl)pyrimidin-2-yl]amino}phenyl)pyridin-4-yl]propanoic acid]
> 7.00 | Cc1cc(Nc2nccc(C)n2)cc(-c2cc(CCC(=O)O)ccn2)c1 [Example 2.23, 3-(2-{3-methyl-5-[(4-methylpyrimidin-2-yl)amino]phenyl}pyridin-4-yl)propanoic acid]
> 7.00 | Cc1cc(Nc2nccc(C3CC3)n2)cc(-c2cc(CCC(=O)O)ccn2)c1 [Example 2.24, 3-(2-{3-[(4-cyclopropylpyrimidin-2-yl)amino]-5-methylphenyl}pyridin-4-yl)propanoic acid]
6.00 to 7.00 | COc1ccnc(Nc2cc(C)cc(-c3ccc(CCC(=O)O)cn3)c2)n1 [Example 2.26, 3-(6-{3-[(4-methoxypyrimidin-2-yl)amino]-5-methylphenyl}pyridin-3-yl)propanoic acid]
> 7.00 | Cc1cc(Nc2nccc(C(F)(F)F)n2)cc(-c2ccc(CCC(=O)O)cn2)c1 [Example 2.30, 3-[6-(3-methyl-5-{[4-(trifluoromethyl)pyrimidin-2-yl]amino}phenyl)pyridin-3-yl]propanoic acid]

pIC50 | Compound
> 7.00 | Cc1cc(Nc2nccc(C(F)(F)F)n2)cc(-c2cccc(CCC(=O)O)n2)c1 [Example 2.31, 3-[6-(3-methyl-5-{[4-(trifluoromethyl)pyrimidin-2-yl]amino}phenyl)pyridin-2-yl]propanoic acid]
5.00 to 6.00 | CCOC(=O)CCc1cccc(-c2cc(C)cc(Nc3nccc(C)n3)c2)n1 [Example 2.32, ethyl 3-(6-{3-methyl-5-[(4-methylpyrimidin-2-yl)amino]phenyl}pyridin-2-yl)propanoate]
6.00 to 7.00 | CCOC(=O)CCc1ccnc(-c2cc(C)cc(Nc3nccc(C)n3)c2)c1 [Example 2.33, ethyl 3-(2-{3-methyl-5-[(4-methylpyrimidin-2-yl)amino]phenyl}pyridin-4-yl)propanoate]
6.00 to 7.00 | Cc1cc(Nc2nccc(C)n2)cc(-c2ccc(CCC(=O)O)cn2)c1 [Example 2.34, 3-(6-{3-methyl-5-[(4-methylpyrimidin-2-yl)amino]phenyl}pyridin-3-yl)propanoic acid]
6.00 to 7.00 | Cc1cc(Nc2nccc(C)n2)cc(-c2cccc(CCC(=O)O)n2)c1 [Example 2.35, 3-(6-{3-methyl-5-[(4-methylpyrimidin-2-yl)amino]phenyl}pyridin-2-yl)propanoic acid]
5.00 to 6.00 | CCOC(=O)CCc1ccc(-c2cc(C)cc(Nc3nccc(C)n3)c2)nc1 [Example 2.36, ethyl 3-(6-{3-methyl-5-[(4-methylpyrimidin-2-yl)amino]phenyl}pyridin-3-yl)propanoate]
6.00 to 7.00 | CCOC(=O)CCc1ccc(-c2cc(C)cc(Nc3nccc(C4CC4)n3)c2)nc1 [Example 2.37, ethyl 3-(6-{3-[(4-cyclopropylpyrimidin-2-yl)amino]-5-methylphenyl}pyridin-3-yl)propanoate]
6.00 to 7.00 | CCOC(=O)CCc1cccc(-c2cc(C)cc(Nc3nccc(C4CC4)n3)c2)n1 [Example 2.38, ethyl 3-(6-{3-[(4-cyclopropylpyrimidin-2-yl)amino]-5-methylphenyl}pyridin-2-yl)propanoate]
6.00 to 7.00 | CCOC(=O)CCc1ccnc(-c2cc(C)cc(Nc3nccc(C4CC4)n3)c2)c1 [Example 2.39, ethyl 3-(2-{3-[(4-cyclopropylpyrimidin-2-yl)amino]-5-methylphenyl}pyridin-4-yl)propanoate]
> 7.00 | Cc1cc(Nc2nccc(C3CC3)n2)cc(-c2ccc(CCC(=O)O)cn2)c1 [Example 2.40, 3-(6-{3-[(4-cyclopropylpyrimidin-2-yl)amino]-5-methylphenyl}pyridin-3-yl)propanoic acid]
6.00 to 7.00 | COc1ccc(-c2cccc(Nc3nccc(C(F)(F)F)n3)c2)cn1 [Example 2.41, N-[3-(6-methoxypyridin-3-yl)phenyl]-4-(trifluoromethyl)pyrimidin-2-amine]
6.00 to 7.00 | OC(c1ccccc1)c1ccc(-c2cccc(Nc3nccc(C(F)(F)F)n3)c2)cn1 (stereo not shown) [Example 2.42, phenyl[5-(3-{[4-(trifluoromethyl)pyrimidin-2-yl]amino}phenyl)pyridin-2-yl]methanol]
6.00 to 7.00 | Oc1ccc(-c2cccc(Nc3nccc(C(F)(F)F)n3)c2)cn1 [Example 2.43, 5-(3-{[4-(trifluoromethyl)pyrimidin-2-yl]amino}phenyl)pyridin-2-ol]
> 7.00 | O=c1[nH]c2cc(-c3cccc(Nc4nccc(C(F)(F)F)n4)c3)cnc2[nH]1 [Example 2.44, 6-(3-{[4-(trifluoromethyl)pyrimidin-2-yl]amino}phenyl)-1,3-dihydro-2H-imidazo[4,5-b]pyridin-2-one]
> 7.00 | Cc1cc(Nc2nccc(C(F)(F)F)n2)cc(-c2cccnc2F)c1 [Example 2.45, N-[3-(2-fluoropyridin-3-yl)-5-methylphenyl]-4-(trifluoromethyl)pyrimidin-2-amine]
> 7.00 | Cc1cc(Nc2nccc(C(F)(F)F)n2)cc(-c2ccc(C#N)nc2)c1 [Example 2.46, 5-(3-methyl-5-{[4-(trifluoromethyl)pyrimidin-2-yl]amino}phenyl)pyridine-2-carbonitrile]
> 7.00 | Cc1cc(Nc2nccc(C(F)(F)F)n2)cc(-c2cnc3c(c2)CCN3)c1 [Example 2.47, N-[3-(2,3-dihydro-1H-pyrrolo[2,3-b]pyridin-5-yl)-5-methylphenyl]-4-(trifluoromethyl)pyrimidin-2-amine]
> 7.00 | CC(=O)c1cncc(-c2cc(C)cc(Nc3nccc(C(F)(F)F)n3)c2)c1 [Example 2.48, 1-[5-(3-methyl-5-{[4-(trifluoromethyl)pyrimidin-2-yl]amino}phenyl)pyridin-3-yl]ethanone]
